Assay results taken from patent publication US20100173930A1, “Certain Chemical Entities, Compositions and Methods” (priority 2006, published 2010).

Test system: SKM MYOFIBRIL
Test: SKM myofibril AC1.4 (ATPase, PK/LDH coupled enzyme system); note: unit not given here
Assay type: biochemical
Settings: screen at pCa=6.5

Row | Structure (SMILES) | SKM MYOFIBRIL AC1.4 (median)
1 | Fc1ccc(-c2nc3ccccn3c2NC2CCCCC2)cc1 [cyclohexyl[2-(4-fluorophenyl)(4-hydroimidazo[1,2-a]pyridin-3-yl)]amine] | 9.155
2 | COC(=O)c1ccn2c(NCc3cccc(Cl)c3)c(-c3ccccc3O)nc2c1 [methyl 3-{[(3-chlorophenyl)methyl]amino}-2-(2-hydroxyphenyl)-4-hydroimidazo[1,2-a]pyridine-7-carboxylate] | 5.1088
3 | Cc1ccn2c(NCC(=O)N3CCCCC3)c(-c3ccccc3O)nc2c1 [2-{[2-(2-hydroxyphenyl)-7-methyl(4-hydroimidazo[1,2-a]pyridin-3-yl)]amino}-1-piperidylethan-1-one] | 40.2086
4 | Cc1cccc(CNc2c(-c3ccccc3O)nc3cc(C)ccn23)c1 [2-(7-methyl-3-{[(3-methylphenyl)methyl]amino}-4-hydroimidazo[1,2-a]pyridin-2-yl)phenol] | 0.9541
5 | O=C(O)c1ccc2nc(-c3ccccc3O)c(NCc3ccc(F)cc3)n2c1 [3-{[(4-fluorophenyl)methyl]amino}-2-(2-hydroxyphenyl)-4-hydroimidazo[1,2-a]pyridine-6-carboxylic acid] | 30.4725
6 | Cc1ccn2c(NCc3cccc(Cl)c3)c(-c3ccc(Cl)cc3O)nc2c1 [5-chloro-2-(3-{[(3-chlorophenyl)methyl]amino}-7-methyl(4-hydroimidazo[1,2-a]pyridin-2-yl))phenol] | 20.0045
7 | Oc1ccc(-c2nc3ccccn3c2NCc2cccc(Cl)c2)cc1 [4-(3-{[(3-chlorophenyl)methyl]amino}-4-hydroimidazo[1,2-a]pyridin-2-yl)phenol] | 10.5567
8 | Cc1ccn2c(NCc3cccc(Cl)c3)c(-c3ccccc3O)nc2n1 [2-(3-{[(3-chlorophenyl)methyl]amino}-7-methyl-4-hydroimidazo[1,2-a]pyrimidin-2-yl)phenol] | 7.147
9 | Cc1ccn2c(NCc3ccccc3C)c(-c3ccccc3O)nc2c1 [2-(7-methyl-3-{[(2-methylphenyl)methyl]amino}-4-hydroimidazo[1,2-a]pyridin-2-yl)phenol] | 0.9648
10 | Cc1cn2c(NCc3cccc(Cl)c3)c(-c3ccccc3O)nc2cn1 [2-(3-{[(3-chlorophenyl)methyl]amino}-6-methyl-4-hydroimidazo[1,2-a]pyrazin-2-yl)phenol] | 3.6886
11 | CN(C)CCNCc1ccc2nc(-c3ccccc3O)c(NCc3cccc(Cl)c3)n2c1 [2-[6-({[2-(dimethylamino)ethyl]amino}methyl)-3-{[(3-chlorophenyl)methyl]amino}-4-hydroimidazo[1,2-a]pyridin-2-yl]phenol] | 6.9925
12 | Cc1cccc2cc3c(nc12)OCC(=O)N(Cc1ccc(Cl)cc1)C3 [4-[(4-chlorophenyl)methyl]-10-methyl-2H,5H-1,4-oxazaperhydroepino[7,6-b]quinolin-3-one] | 18.1529
13 | Oc1ccc(-c2nc3cc(Cl)ccn3c2NCc2ccc(F)cc2)cc1 [4-(7-chloro-3-{[(4-fluorophenyl)methyl]amino}-4-hydroimidazo[1,2-a]pyridin-2-yl)phenol] | 10.9866
14 | COc1ccc(-c2nc3cc(C)ccn3c2NCc2cccc(Cl)c2)c(O)c1 [2-(3-{[(3-chlorophenyl)methyl]amino}-7-methyl(4-hydroimidazo[1,2-a]pyridin-2-yl))-5-methoxyphenol] | 27.0817
15 | COc1ccccc1CNc1c(-c2ccccc2O)nc2cc(C)ccn12 [2-(3-{[(2-methoxyphenyl)methyl]amino}-7-methyl-4-hydroimidazo[1,2-a]pyridin-2-yl)phenol] | 1.9683
16 | OCc1ccn2c(NCc3cccc(Cl)c3)c(-c3ccccc3O)nc2c1 [2-(3-{[(3-chlorophenyl)methyl]amino}-7-(hydroxymethyl)-4-hydroimidazo[1,2-a]pyridin-2-yl)phenol] | 1.9956
17 | COc1cccc2nc(O)c(-c3nc4cc(C)ccn4c3NCc3cccc(Cl)c3)cc12 [3-(3-{[(3-chlorophenyl)methyl]amino}-7-methyl(4-hydroimidazo[1,2-a]pyridin-2-yl))-5-methoxyquinolin-2-ol] | 2.3608
18 | Cc1ccn2c(NC3CCCCC3)c(-c3ccoc3)nc2c1 [cyclohexyl(2-(3-furyl)-7-methyl(4-hydroimidazo[1,2-a]pyridin-3-yl))amine] | 30.5823
19 | O=C(NCCO)c1ccc2nc(-c3ccccc3O)c(NCc3ccc(F)cc3)n2c1 [(3-{[(4-fluorophenyl)methyl]amino}-2-(2-hydroxyphenyl)(4-hydroimidazo[1,2-a]pyridin-6-yl))-N-(2-hydroxyethyl)carboxamide] | 2.2384
20 | Cc1ccn2c(NCc3cccc(Cl)c3)c(-c3ccccc3O)nc2c1 [2-(3-{[(3-chlorophenyl)methyl]amino}-7-methyl-4-hydroimidazo[1,2-a]pyridin-2-yl)phenol] | 0.9522
21 | Oc1ccc(-c2nc3ccccn3c2NCc2cccc(F)c2)cc1 [4-(3-{[(3-fluorophenyl)methyl]amino}-4-hydroimidazo[1,2-a]pyridin-2-yl)phenol] | 28.3763
22 | Oc1ccc(-c2nc3cccc(Br)n3c2NC2CCCCC2)cc1 [4-[5-bromo-3-(cyclohexylamino)-4-hydroimidazo[1,2-a]pyridin-2-yl]phenol] | 21.5453
23 | O=C(c1ccc2nc(-c3ccccc3O)c(NCc3cccc(Cl)c3)n2c1)N1CCOCC1 [3-{[(3-chlorophenyl)methyl]amino}-2-(2-hydroxyphenyl)(4-hydroimidazo[1,2-a]pyridin-6-yl) morpholin-4-yl ketone] | 24.9925
24 | Oc1ccccc1-c1nc2ccc(Cl)cn2c1NCc1ccc(F)cc1 [2-(6-chloro-3-{[(4-fluorophenyl)methyl]amino}-4-hydroimidazo[1,2-a]pyridin-2-yl)phenol] | 3.5116
25 | Cc1ccn2c(NCc3cccc(Cl)c3)c(-c3ccc(O)cc3O)nc2c1 [4-(3-{[(3-chlorophenyl)methyl]amino}-7-methyl-4-hydroimidazo[1,2-a]pyridin-2-yl)benzene-1,3-diol] | 22.1516
26 | Oc1ccccc1-c1nc2ccc(Br)cn2c1NCc1cccc(Cl)c1 [2-(6-bromo-3-{[(3-chlorophenyl)methyl]amino}-4-hydroimidazo[1,2-a]pyridin-2-yl)phenol] | 5.3855
27 | CCc1ccn2c(NC3CCCC3)c(-c3ccc(O)cc3)nc2c1 [4-[3-(cyclopentylamino)-7-ethyl-4-hydroimidazo[1,2-a]pyridin-2-yl]phenol] | 7.5674
28 | C[C@@H](Nc1c(-c2ccc(O)cc2)nc2ccccn12)C(C)(C)C [4-{3-[((1R)-1,2,2-trimethylpropyl)amino]-4-hydroimidazo[1,2-a]pyridin-2-yl}phenol] | 15.0489
29 | Oc1ccccc1-c1nc2c(Br)cccn2c1NCc1cccc(Cl)c1 [2-(8-bromo-3-{[(3-chlorophenyl)methyl]amino}-4-hydroimidazo[1,2-a]pyridin-2-yl)phenol] | 13.2238
30 | Cc1ccn2c(NCc3cccc(F)c3)c(-c3ccccc3O)nc2c1 [2-(3-{[(3-fluorophenyl)methyl]amino}-7-methyl-4-hydroimidazo[1,2-a]pyridin-2-yl)phenol] | 1.4096
